Laboratory results published in patent publication US20160304573A1, “FIBROMODULIN PEPTIDE” (The Regents of the University of California, priority 2010, published 2016).
Blank lines part the entries; values can stand above or below the molecule they belong to.

Columns and labels:
TGF-β1 [1] = target: T1, TGF-β1 (Homo sapiens, UniProt P01137); assay: TGF-β1 binding to biotinylated FMOD/FMOD peptides on avidin resin; non-bound TGF-β read by Mv1Lu growth inhibition (MTT); settings: ratios 1:1, 10:1, 100:1, 1000:1 to TGF-β; overnight 4° C.; FIG. 13
Experimental: (§1) FMOD (whole protein) (SEQ ID NO:1), FMOD peptides and control protein BSA were biotinylated. While, the biotinylated proteins and peptides were bound to commercial available Piece Monomeric Avidin UltraLink Resin (Piece). The amounts of each test peptides/proteins are 1:1, 10:1, 100:1 and 1000:1 to TGF-βs, respectively. After washing out the non-bound residues, appropriate amount TGF-βs (based on the primary test assay) were added to the resin at 4° C. After overnight binding, non-bound TGF-βs were collected, followed by filter sterilization. Then, the TGF-βs residue were diluted 100 times in DEME-0.5% FBS to ensure the concentration was located in the linear region of TGF-βs on Mv1Lu proliferate inhibition.
(§2) Diluted TGF-βs was added to overnight serum-starved Mv1Lu, and fresh TGF-βs media were added for another 24 hour before MTT assay. Samples with no TGF-βs added were employed as controls.

TGF-β2 = target: T2, TGF-β2 (Homo sapiens, UniProt P61812); assay: TGF-β2 binding to biotinylated FMOD/FMOD peptides on avidin resin; non-bound TGF-β read by Mv1Lu growth inhibition (MTT); settings: ratios 1:1, 10:1, 100:1, 1000:1 to TGF-β; FIG. 14
T2 sequence (P61812 303-414 limits assumed): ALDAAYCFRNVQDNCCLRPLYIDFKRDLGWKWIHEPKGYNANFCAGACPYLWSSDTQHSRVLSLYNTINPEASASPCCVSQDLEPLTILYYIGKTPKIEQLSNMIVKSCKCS
Experimental: as §1, §2

TGF-β3 = target: T3, TGF-β3 (Homo sapiens, UniProt P10600); assay: TGF-β3 binding to biotinylated FMOD/FMOD peptides on avidin resin; non-bound TGF-β read by Mv1Lu growth inhibition (MTT); settings: ratios 1:1, 10:1, 100:1, 1000:1 to TGF-β; FIG. 15
T3 sequence (P10600 301-412 limits assumed): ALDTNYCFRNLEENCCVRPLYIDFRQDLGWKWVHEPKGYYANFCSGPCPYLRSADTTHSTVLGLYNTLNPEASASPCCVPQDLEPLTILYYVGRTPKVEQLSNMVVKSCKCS
Experimental: as §1, §2

[2] = test system: connective tissue growth factor (CTGF) expression; assay: CTGF expression and cell aggregation in Rat-2 cells, confocal staining; type: cell-based
Experimental: Results of exemplary tests on each of FMOD and FMOD-P, alone or in combination with TGF-β on CTGF expression are shown in FIGS. 28A-28D. In these tests, 4,000 cells/well passage 18 Rat-2 cells were seeded in 8-well chamber slices in DMEM medium with 10% FBS. After 6 h adhesion, fresh DMEM medium with 0.5% FBS was employed for overnight serum starvation and then treatment media added. Treatment media were changed after 24 h. Cells were fixed and staining at 48 h. Photos were captured at 630× magnifications using a confocal microscope. In these figures, the cells were stained for CTGF (connective tissue growth factor, a factor involved in cell proliferation, migration and matrix production) or DAPI (4′,6-diamidino-2-phenylindole a fluorescent stain that binds strongly to DNA-used for nuclear staining). Merged images showing both CTGF and DAPI staining are also shown.

Rat-2 cells [3] = assay: H&E morphology of Rat-2 cells; type: cell-based
Experimental: Exemplary tests were performed to better delineate cell morphology.

[4] = test system: α-smooth muscle actin (α-SMA) expression; assay: α-SMA expression staining; type: cell-based; settings: mono-treatment (200 nM FMOD or 100 pM TGF-β1); FIGS. 25B, 25C
Experimental: Exemplary tests on effects of FMOD and TGF-β or FMOD peptides and TGF-β on α-SMA expression were performed and shown in FIGS. 25A-25D. Expression levels of α-SMA, which is a marker for the transition of fibroblasts to myofibroblasts, were measured and presented in staining in these figures.

Rat-2 cells [5] = assay: Rat-2 cell migration/invasion in Matrigel, DAPI nuclear staining; type: cell-based; settings: alone (200 nM FMOD or peptide, or 100 pM TGF-β), 24 hour treatment
Experimental: Cell migration/invasion in Matrigel was documented at 200× magnificent after 24 hour treatment and quantitated using DAPI nuclear staining (results shown in FIG. 19A and repeat results in FIGS. 26B and 26C; DAPI pictures are shown in FIG. 19D).
(§3) Similar to FMOD (whole protein), the effect of FMOD peptides and/or TGF-β on cell migration was also evaluated by scratching method (FIGS. 18C and 25D). At the same time, cell migration/invasion in Matrigel was documented at 100× magnificent after 24 hour treatment and quantitated using DAPI nuclear staining (100 rather than 200× magnification was used because one group's invasion is quite low) (see the results in FIG. 20A and DAPI pictures in FIG. 20B). Passage 18 Rat-2 cells (20,000 cells/well) were used for the test under the treatment of 100 pM TGF-β1 (SEQ ID NO:64)/133 (SEQ ID NO:66) with/without 200 nM FMOD-F07-40C in DMEM-0.5% FBS.
Passage 18 Rat-2 cells (20,000 cells/well) were used for the test under the treatment of 100 pM TGF-β1/β3 with/without 200 nM FMOD-F06-40C in DMEM-0.5% FBS (FIG. 20C).

Rat-2 cells [6] = assay: Rat-2 cell migration by scratching method; type: cell-based; settings: alone (200 nM FMOD or 100 pM TGF-β), 24 hours
Experimental: 1×10^6 cell/well Rat-2 cells were seeded in 6-well plated with 3 ml DMEM-10% FBS. After 6 hours for adhesion, fresh DMEM-0.5% FBS medium was changed for serum-starving overnight. After pre-warmed DMEM rinsing, four wounds (each 1 mm wide; two horizontal and two vertical) were scratched employing a 1-ml tip for each treatment group. Cells were rinsed by DMEM for three times, followed by incubation with treatment medium [DMEM-0.5 FBS containing 100 pM (2.5 ng/ml) TGF-β1 (SEQ ID NO:64) or -β3 (SEQ ID NO:66) w/o 200 nM (11.2 μg/ml) FMOD (SEQ ID NO:1)] for 24 hours. Photos were captured at both 0-h and 24-h after the scratching. The unclosed distance was measured and quantified as an average gap (A) and migration index (B). Similar results were reproduced in four independent experiments. The scale bar in (A) equal to 100 The asterisks in (B) present P<0.05.
as §3

[7] = target: T4, Bovine serum albumin (BSA) (bovine, UniProt P02769 25-607); assay: biotinylated protein on avidin resin, unbound TGF-β read by Mv1Lu growth inhibition (MTT)
T4 construct: also called control BSA; control protein BSA
Experimental: as §1, §2

TGF-β1 [8] = target: T1, TGF-β1; assay: ELISA analysis of binding with TGF-β1; settings: BSA as negative control; FIG. 3
Excerpt: Bovine serum albumin (BSA) was used as negative control.
SUMO-CAT from the recombinant bacteria harboring control plasmid pET_SUMO/CAT was used as negative control. To the knowledge of inventors, the TGF-binding sites within FMOD have not been reported.

T1 sequence (P01137 279-390 limits assumed): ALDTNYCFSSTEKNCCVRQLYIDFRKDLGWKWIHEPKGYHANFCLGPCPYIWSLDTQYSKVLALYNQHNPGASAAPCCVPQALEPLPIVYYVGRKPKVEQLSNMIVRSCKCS
T4 sequence (P02769 25-607 limits assumed): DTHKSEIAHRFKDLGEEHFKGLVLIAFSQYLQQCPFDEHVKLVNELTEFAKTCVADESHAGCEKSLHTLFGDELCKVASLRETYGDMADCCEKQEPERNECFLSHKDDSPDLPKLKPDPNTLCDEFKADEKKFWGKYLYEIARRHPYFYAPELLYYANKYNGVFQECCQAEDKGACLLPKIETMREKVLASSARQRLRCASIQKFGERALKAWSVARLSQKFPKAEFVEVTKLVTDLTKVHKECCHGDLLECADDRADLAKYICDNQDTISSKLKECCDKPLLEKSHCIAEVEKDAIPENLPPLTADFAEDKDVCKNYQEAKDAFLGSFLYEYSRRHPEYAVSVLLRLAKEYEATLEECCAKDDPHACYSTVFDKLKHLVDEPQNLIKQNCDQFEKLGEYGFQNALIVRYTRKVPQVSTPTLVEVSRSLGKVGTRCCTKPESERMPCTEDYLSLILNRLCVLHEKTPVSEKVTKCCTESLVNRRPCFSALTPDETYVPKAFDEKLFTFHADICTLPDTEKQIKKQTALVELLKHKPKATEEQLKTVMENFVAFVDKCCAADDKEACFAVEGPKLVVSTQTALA

- TGF-β2 binding (TGF-β2): minimal TGF-β2 binding
Molecule: Bovine serum albumin [BSA, reference compound]
- TGF-β1 binding (TGF-β1 [1]): minimal TGF-β1 binding except at very high ratios
- TGF-β3 binding (TGF-β3): did not bind to TGF-β3 even at high ratios

Molecule: TGF-β1: TGF-β isoform, SEQ ID NO:64
- CTGF expression ([2]; mono-treatment (200 nM FMOD or 100 pM TGF-β1), 48 h, FIGS. 21B, 21C): moderate CTGF expression
- CTGF expression (green fluorescence) ([2]; mono-treatment, another set of similar studies, FIG. 24): increases expression of CTGF
- nodule-like cell aggregations/condensations, number (Rat-2 cells [3]; 100 pM TGF-β1 alone, 8-well chamber slides): < one
- cell aggregation/density (H&E) (Rat-2 cells [3]; mono-treatment (200 nM FMOD or 100 pM TGF-β1), relative to controls): slightly increased the Rat-2 cell density
- α-SMA staining [4]: moderate α-SMA staining

- binding result [7]: no binding
B1: TGF-β3 (ligand)
chain: NCCVRPLYIDFRQDLGWKWVHEPKGYYANFCSGPCPYLRSADTTHSTVLGLYNTLNPEASASPCCVPQDLEPLTILYYVGRTPKVEQLSNMVVKSCKCS
- cell migration/invasion in Matrigel (Rat-2 cells [5]): inhibited migration
- cell migration, scratch (Rat-2 cells [6]): inhibited migration

- binding with TGF-β1 in ELISA assay (TGF-β1 [8]): able to bind with TGF-β1
B2: native extract bovine FMOD: native extract bovine FMOD, comparator in ELISA (protein)
chain: QYEEDSHWWFQFLRNQQSTYDDPYDPYPYEPYEPYPYGGEEGPAYAYGSPPQPEPRDCPQECDCPPNFPTAMYCDNRNLKYLPFVPSRMKYVYFQNNQISSIQEGVFDNATGLLWIALHGNQITSDKVGKKVFSKLRHLERLYLDHNNLTRIPSPLPRSLRELHLDHNQISRVPNNALEGLENLTALYLHHNEIQEVGSSMKGLRSLILLDLSYNHLRKVPDGLPSALEQLYLEHNNVFSVPDSYFRGSPKLLYVRLSHNSLTNNGLASNTFNSSSLLELDLSYNQLQKIPPVSTNLENLYLQGNRINEFSISSFCTVVDVMNFSKLQVLRLDGNEIKRSAMPADAPLCLRLASLIEI
